{"source": "patent US6372723B1", "about": "“Compositions and methods for preventing restenosis following revascularization procedures” (Discovery Therapeutics, Inc., priority 1997, dated 2002)", "key": {"[1]": {"test_system": "rabbits with focal femoral atherosclerosis (arterial stenosis)", "assay": "Restenosis after balloon angioplasty in rabbits with focal femoral atherosclerosis", "type": "in vivo", "conditions": "rabbit", "method": "Focal femoral atherosclerosis is induced in rabbits by air desiccation endothelial injury followed by a 2% cholesterol, 6% peanut oil diet for one month. The degree of arterial stenosis is assessed angiographically. At this time, balloon angioplasty is performed using a 2.5 mm balloon, which is inserted into the region of stenosis and inflated with three 60-second, 10-atmosphere inflations 60 seconds apart. This procedure is similar to that used in humans for clearing coronary blood vessels. Rabbits receive an intravenous infusion of 2-cyclohexylmethylenehydrazinoadenosine (0.6 μg/kg/min) or vehicle starting 10 minutes before the angioplasty procedure and continuing for 1 day following angioplasty. Angiograms are performed before and after angioplasty and at 28 days after angioplasty. These angiograms are analyzed quantitatively for decrease of arterial stenosis. Rabbits are sacrificed 28 days following angioplasty and arteries are analyzed histopathologically and morphometrically.\nExample 1 is followed, with the exception that one rabbit group is treated with an effective amount of a combination of (±)-N^6-endonorboman-2-yl-9-methyladenine (0.25 mg/kg/min) and 5′-N-ethylcarboxamidoadenosine (6 μg/kg/min) instead of 2-cyclohexylmethylenehydrazinoadenosine. […]"}, "[2]": {"test_system": "platelets and neutrophils", "assay": "In vivo activation of neutrophils and platelets after balloon angioplasty, flow cytometry of coronary sinus blood", "design": "species or system human", "conditions": "humans, i.v. infusion 0.6 μg/kg/min from 10 min before to 1 day after angioplasty", "method": "Humans are subjected to balloon angioplasty, and receive either an intravenous infusion of 2-cyclohexylmethylenehydrazinoadenosine (0.6 μg/kg/min) or vehicle starting 10 minutes before the angioplasty procedure and continuing for 1 day following angioplasty. In vivo activation of neutrophils and platelets are measured by taking a blood sample from the coronary sinus and measuring the expression of surface adhesion molecules on platelets and neutrophils by flow cytometry."}, "[3]": {"test_system": "humans with stenotic arteries (restenosis)", "assay": "Incidence of restenosis by angiography six months after balloon angioplasty", "type": "in vivo, human", "conditions": "i.v. infusion 0.6 μg/kg/min from 10 min before to 1 day after angioplasty", "method": "Humans afflicted with impaired blood flow due to stenotic arteries are subjected to balloon angioplasty, and receive either an intravenous infusion of 2-cyclohexylmethylenehydrazinoadenosine (0.6 μg/kg/min) or vehicle starting 10 minutes before the angioplasty procedure and continuing for 1 day following angioplasty. Six months following the balloon angioplasty procedure, angiography is performed on these subjects to examine the blood vessel subjected to the angioplasty."}}, "data": [{"smiles": "Nc1nc(NN=CC2CCCCC2)nc2c1ncn2[C@@H]1O[C@H](CO)[C@@H](O)[C@H]1O", "note": "[2-cyclohexylmethylenehydrazinoadenosine]", "values": [{"measurement": "degree of arterial stenosis vs vehicle group", "setting": "[1]; i.v. infusion 0.6 μg/kg/min from 10 min before to 1 day after angioplasty, assessed 28 days after angioplasty", "value": "significantly less"}, {"measurement": "neutrophils that express surface adhesion molecules vs vehicle group", "setting": "[2]", "value": "significantly fewer"}, {"measurement": "platelets that express surface adhesion molecules vs vehicle group", "setting": "[2]", "value": "significantly fewer"}, {"measurement": "incidence of restenosis vs vehicle group", "setting": "[3]", "value": "significantly less"}]}, {"smiles": "Cn1cnc2c(N[C@@H]3C[C@@H]4CC[C@H]3C4)ncnc21", "note": "(racemic) [(±)-N^6-endonorbornan-2-yl-9-methyladenine, reference compound]", "values": [{"measurement": "degree of arterial stenosis vs vehicle group", "setting": "[1]; A1 antagonist alone 0.25 μg/kg/min, as Example 1", "value": "significantly less"}]}]}
